{
  "source": "patent US20250009844A1",
  "about": "“MATURATION OF MUCOSAL DEFENSE AND GUT/LUNG FUNCTION IN THE PRETERM INFANT” (Novozymes A/S, priority 2017, published 2025)",
  "key": {"[1]": {"assay": "Prophylactic high fat diet murine model, weight change (Example 1)", "type": "in vivo, mice", "conditions": "HFD plus hBD-2 1,2 mg per kg per day in diet vs HFD reference group; 10 week study period; p=0.0028", "excerpt": "The overall experimental design is shown in FIG. 1, top panel “Prophylactic study”. Mice: Mice were housed in trios, 4 cages per group. Feed intake was registered daily just before lights were turned off at 6 pm. Individual mice were subjected to experimental procedures in altered order both group and cage wise. Mice were kept at room temperature under a 12-hour light/dark cycle at SPF standard conditions. Diets: For dosing, the average weight was estimated to be 25 grams per mouse. Mice eat approximately 3 grams of feed per mouse per day.\nTreatment regime: Mice were fed either a high fat diet (HFD) or a low fat (LF) control diet. The HFD contained 4 subgroups; a) hBD-2, b) HD5, c) hBD-2/HD5 and d) standard HFD without supplementation of defensins. Defensin concentration was 1,2 mg hBD-2 per kg mouse per day. HD5 was given in equimolar concentration to hBD-2."}, "BALB/c mice [2]": {"tested_on": "BALB/c mice", "assay": "Murine model of acute graft versus host disease following stem cell transplantation, oral hBD-2 (Example 11)", "type": "in vivo", "conditions": "for Intestinal T cell infiltration / Myeloid cell infiltration / Infiltration with CD45+ leucocytes: lamina propria; for Infiltration with CD45+ leucocytes: FACS analysis", "description": "Bone marrow was harvested: hind limbs harvested from 2 female WT C57BL/6 mice aseptically. Skeletal muscle was removed and epiphysis cut away. Lumen of bone flushed with PBS and cells pelleted and taken up. Harvest of T-cells: spleens from 2 female WT C57BL/6 mice were meshed through a […] cell strainer into a PBS filled dish. Cells were taken up in PBS and transferred into a 50 mL falcon tube and spun down. Cells were taken up in 1 mL PBS and 20 μL of CD4 microbead+20 μL CD8 microbeads per spleen added for incubation for 20 min at 4 degrees C. Cells were washed with PBS and applied to MACS separation in order to positively select CD4+ and CD8+ cells. Positively selected T-cells were counted and taken up. Transplantation: directly after the second irradiation, all WT BALB/c recipient mice were injected with 5×1.000.000 BM cells (50 μL) i.v. into the retroorbital venous plexus under isoflurane anesthesia. 15 BALB/c mice were treated with 1.2 mg of hBD2/kg BW/day in 100 μL PBS per day vial oral gavage from day 0-10.\n15 BALB/c mice received vehicle 100 μL PBS per day via oral gavage from day 0-10.\nThe mice were weighed daily for the initial 7 days and survival was monitored for 100 days."}, "BALB/c mice [3]": {"tested_on": "BALB/c mice", "assay": "Prophylactic treatment in murine house dust mite driven model of allergic asthma (Example 5)", "type": "in vivo", "conditions": "for Increase of airway resistance (airway hyper responsiveness) / Decrease of pulmonary compliance: vs HDM challenged vehicle", "description": "Treatment regime: Female 7-10 weeks old BALB/c mice were randomly allocated into 5study groups one day prior to study start and subcutaneously (SC) sensitized to house dust mite (100 μg HDM in 200 uL saline plus Freund's complete adjuvant in 0.9% saline). The mice were treated with hBD-2 orally and intranasally respectively at a dose of 1.2 mg/kg/day (0.4 mg/kg TID) starting on day 12 in the morning and continued TID at approximately 6 hours intervals. The last dose was administered on day 14 one hour prior to challenge. The total number of doses was 8 doses or a total of […] hBD-2.Mice were then intranasally (IN) challenged with HDM on day 14 (HDM 25 μg in 50 μL of saline) (FIG. 2).\nAirway inflammation: At 48 hours post challenge, bronchoalveolar lavage was performed washing the lungs with 3 volumes of cold PBS (0.4; 0.3 and 0.3 mL, total 1 mL). Total and differential leucocyte cell counts were determined on an automated haematological analyser Sysmex XT-2000iV.\nLung function: Starting 48 hours after HDM challenge, measurements of lung resistance and lung compliance were carried out after methacholine challenge (3.125 MCH1; 6.25 MCH2; 12.5 MCH3 and 25 mg/mL MCH4) by anaesthetized, cannulated mice using DSI's Buxco Finepoint RC system. Data are represented as airway resistance at […] methacholine and as dose responsive curves. Lung sampling for cytokine analysis: After completion of every BAL, lungs were removed from the thorax, snap frozen in liquid nitrogen and stored frozen at −80 degrees Celsius until analysis of cytokine concentration of TNF-α, IL-4, IL-5, IL-6, IL-9, IL-13 and IL-33 in lung homogenate by ELISA."}, "[4]": {"conditions": "intranasal administration, not statistically significantly different from the control"}},
  "note": "Entries after “also recorded” stand apart in the source; their conditions may differ. No end group written: not given here.",
  "data": [
    {"substance": "human beta defensin 2 (GIGDPVTCLKSGAICHPVFCPRRYKQIGTCGLPGTKCCKKP; ends and bridges not checked; cysteine pairing not given here; listed as Homo sapiens) [hBD-2]", "values": [
      {"measurement": "Weight gain", "setting": "[1]", "value": "gained significantly less weight than the HFD reference group"},
      {"measurement": "Mortality", "setting": "BALB/c mice [2]; 15 mice oral hBD-2 for 10 days vs 15 mice PBS, p<0.0001", "value": "highly statistically significant reduction of mortality"},
      {"measurement": "Share of treated mice that had died by day 35", "setting": "BALB/c mice [2]; 15 mice, 1.2 mg/kg BW/day oral gavage day 0-10", "value": "less than 30%"},
      {"measurement": "Mice that had died by day 35", "setting": "BALB/c mice [2]; 15 mice, 1.2 mg/kg BW/day oral gavage day 0-10, all 15 vehicle mice had died by day 35", "value": 4},
      {"measurement": "Mice still alive by day 100", "setting": "BALB/c mice [2]; 15 mice, 1.2 mg/kg BW/day oral gavage day 0-10, p<0.0001", "value": 8},
      {"measurement": "IL-1β from myeloid cells", "setting": "BALB/c mice [2]; FACS analysis of the spleen", "value": "Reduced IL-1B production in myeloid cells; also recorded: reduction of IL-1β from myeloid cells"},
      {"measurement": "Neutrophils", "setting": "BALB/c mice [2]; FACS analysis of the spleen", "value": "Reduced proportion of neutrophils; also recorded: reduced number of neutrophils"},
      {"measurement": "Th1 cytokine production, IFN-γ", "setting": "BALB/c mice [2]; FACS analysis of the spleen, CD4, CD8 and CD69+CD4 T cells", "value": "reduced Th 1 cytokine production; also recorded: reduced Th1 cytokine production"},
      {"measurement": "Th1 cytokine production, TNF-α", "setting": "BALB/c mice [2]; FACS analysis of the spleen, CD4 and CD8 T cells", "value": "reduced Th 1 cytokine production; also recorded: reduced Th1 cytokine production"},
      {"measurement": "Weight loss", "setting": "BALB/c mice [2]; first 7 days following bone marrow transplantation", "value": "lost statistically significantly less weight"},
      {"measurement": "Microarray analysis of colon samples", "setting": "BALB/c mice [2]; hBD-2 treated group versus PBS", "value": "decreased inflammation, leucocyte and myeloid cell migration and tissue remodelling"},
      {"measurement": "Intestinal T cell infiltration", "setting": "BALB/c mice [2]", "value": "Reduction of intestinal T cell and myeloid cell infiltration"},
      {"measurement": "Myeloid cell infiltration", "setting": "BALB/c mice [2]", "value": "Reduction of intestinal T cell and myeloid cell infiltration"},
      {"measurement": "Infiltration with CD45+ leucocytes", "setting": "BALB/c mice [2]", "value": "Reduced CD45+leucocyte cell migration"},
      {"measurement": "Infiltration with CD45+ leucocytes", "setting": "BALB/c mice [2]; listed as hBD2", "value": "reduced the infiltration"},
      {"measurement": "Intestinal T cell infiltration", "setting": "BALB/c mice [2]; listed as hBD2", "value": "reduced"},
      {"measurement": "Myeloid cell infiltration", "setting": "BALB/c mice [2]; listed as hBD2", "value": "reduced"},
      {"measurement": "IL-6 concentration", "setting": "BALB/c mice [2]; serum", "value": "reduction of TNF-α and IL-6 concentrations"},
      {"measurement": "IL-10 concentration", "setting": "BALB/c mice [2]; serum", "value": "increased concentration of IL-10"},
      {"measurement": "TNF-α concentration", "setting": "BALB/c mice [2]; serum", "value": "reduction of TNF-α and IL-6 concentrations"},
      {"measurement": "Histology score of the colon", "setting": "BALB/c mice [2]; vs PBS", "value": "statistically significant reduction of histology score; also recorded: highly statistically lower"},
      {"measurement": "Histology score of the liver", "setting": "BALB/c mice [2]; vs PBS", "value": "statistically significant reduction of histology score; also recorded: highly statistically lower"},
      {"measurement": "Histology score of the small intestine", "setting": "BALB/c mice [2]; vs PBS", "value": "statistically significant reduction of histology score; also recorded: highly statistically lower"},
      {"measurement": "Increase of airway resistance (airway hyper responsiveness)", "setting": "BALB/c mice [3]; intranasal 0.4 mg/kg TID day 12 to day 14, 8 administrations", "value": "effectively inhibited increase of airway resistance"},
      {"measurement": "Decrease of pulmonary compliance", "setting": "BALB/c mice [3]; intranasal 0.4 mg/kg TID day 12 to day 14", "value": "effectively inhibited"},
      {"measurement": "IL-4 concentration in lung tissue homogenate", "setting": "BALB/c mice [3]; [4]", "value": "trend towards lowering"},
      {"measurement": "IL-5 concentration in lung tissue homogenate", "setting": "BALB/c mice [3]; [4]", "value": "trend towards lowering"},
      {"measurement": "IL-6 concentration in lung tissue homogenate", "setting": "BALB/c mice [3]; [4]", "value": "trend towards lowering"},
      {"measurement": "IL-9 concentration in lung tissue homogenate", "setting": "BALB/c mice [3]; [4]", "value": "trend towards lowering"},
      {"measurement": "IL-13 concentration in lung tissue homogenate", "setting": "BALB/c mice [3]; [4]", "value": "trend towards lowering"},
      {"measurement": "TNF-α concentration in lung tissue homogenate", "setting": "BALB/c mice [3]; [4]", "value": "trend towards lowering"},
      {"measurement": "Increase of airway resistance (airway hyper responsiveness)", "setting": "BALB/c mice [3]; oral 0.4 mg/kg TID day 12 to day 14, 8 administrations, 48 hours after HDM challenge", "value": "effectively inhibited increase of airway resistance"},
      {"measurement": "Decrease of pulmonary compliance", "setting": "BALB/c mice [3]; oral 0.4 mg/kg TID day 12 to day 14", "value": "effectively inhibited"},
      {"measurement": "IL-4 concentration in lung tissue homogenate", "setting": "BALB/c mice [3]; oral administration", "value": "complete normalization of cytokine concentrations"},
      {"measurement": "IL-5 concentration in lung tissue homogenate", "setting": "BALB/c mice [3]; oral administration", "value": "complete normalization of cytokine concentrations"},
      {"measurement": "IL-6 concentration in lung tissue homogenate", "setting": "BALB/c mice [3]; oral administration", "value": "complete normalization of cytokine concentrations"},
      {"measurement": "IL-9 concentration in lung tissue homogenate", "setting": "BALB/c mice [3]; oral administration", "value": "complete normalization of cytokine concentrations"},
      {"measurement": "IL-13 concentration in lung tissue homogenate", "setting": "BALB/c mice [3]; oral administration", "value": "complete normalization of cytokine concentrations"},
      {"measurement": "TNF-α concentration in lung tissue homogenate", "setting": "BALB/c mice [3]; oral administration", "value": "complete normalization of cytokine concentrations"},
      {"measurement": "Neutrophil counts in BALF", "setting": "BALB/c mice [3]; oral application, 48 hours post challenge", "value": "significantly inhibited neutrophil counts"}
    ]}
  ]
}
